Measured values taken from patent US4585861A, “1,2,4-triazine derivatives” (Eli Lilly and Company, priority 1985, dated 1986).

How the values were obtained:
[1] = Electroshock Induced Convulsion Inhibition Assay; type: in vivo, Cox standard strain albino male mice; conditions: Mus musculus; oral; 0.1 second, 50 milliampere corneal electroshock; active = total score of 6 or less; read-out: Minimum active oral dose, Electro-Shock
Description: (§1) In this assay, a compound to be tested was suspended in acacia (5%) and administered by gavage to each of three Cox standard strain albino male mice (18-24 grams) at the dose level being investigated. One hour after the oral administration, a water solution of metrazole (pentylenetetrazole) was administered by the intraperitoneal route to each mouse at a dose of 110 mg./kg. […] A score of 0 was assigned to a mouse not showing any signs of convulsant activity; a score of 1 was given to mice developing clonic convulsions; a score of 2 was given to mice showing flexor tonic convulsions; a score of 3 was given to mice showing extensor tonic convulsions; and a score of 4 was given to mice that died within the one hour. The scores of the three mice were totalled for each compound and dose level. The scores can range from 0 to 12; a score of 6 or less was interpreted as indicative of an active compound at that dose level. Values reported in Table 2 below are the minimum oral dose levels (mg./kg.) where activity as defined above was observed.
The drug administration and test conditions used in this assay were similar to those used in the metrazole induced convulsion inhibition assay above except that a 0.1 second, 50 milliampere electroshock through corneal electrodes induced the convulsion instead of metrazole. The animals were examined and evaluated immediately after the electroshock and were scored as before. The results in Table 2 are expressed as the lowest dose of each compound tested which was active as previously defined. For comparison, 18 milliamperes was usually sufficient to produce extensor tonic convulsions in about half of the control animals; at 50 milliamperes, almost all control animals died. Diazepam was active at about 1 mg./kg.

[2] = Mouse Writhing Inhibition Assay; type: in vivo, Cox standard strain albino male mice; conditions: oral gavage 60 min before acetic acid 55 mg./kg. i.p., active = less than ten writhes, read-out: Minimum active oral dose, Mouse Writhing
Description: Writhing, which is characterized by contraction of the abdominal musculature, extension of the hindlegs, and rotation of the trunk, was induced in Cox standard strain albino male mice. The mice, weighing 18-24 grams, were fasted overnight and given the test compound by gavage in an acacia suspension (5%) 60 minutes before writhing was induced by the intraperitoneal administration of 55 mg./kg. of acetic acid (0.55 percent). Each treatment group consisted of 3 mice. The total number of writhes for the treatment group was determined during a 5-minute observation starting 5 minutes after acetic acid administration.

[3] = Metrazole Induced Convulsion Inhibition Assay; type: in vivo, Cox standard strain albino male mice; conditions: Mus musculus; oral gavage, 1 h before metrazole 110 mg./kg. i.p.; active = total score of 6 or less (3 mice, range 0-12); read-out: Minimum active oral dose, Metrazole
Description: as §1

benzodiazepine receptor = assay: In vitro activation of benzodiazepine (BZ) binding (flunirazepam, native membrane protein); conditions: average of one or more tests, read-out: SC50 BZ (nanomolar concentration producing a 50% increase in binding)
Description: (§2) The novel compounds of this invention were examined for their in vitro ability to activate GABA and benzodiazepine (BZ) binding. To measure the effect of a compound on GABA binding, Triton X-100 (octylphenoxy polyethoxyethanol, Rohm and Haas Co.) treated membrane protein was incubated in the presence of the compound and [^3 H]GABA as detailed by Horng and Wong, J. Neurochemistry, 32 (5), 1379 (1979). To examine BZ binding, H-flunirazepam and the compounds were incubated with native membrane protein as reported by Wong, et al, Brain Res. Bull., 5 (Suppl. 2), 853 (1980). The results in Table 1 are the nanomolar concentrations of compounds (by Example No.) which produced a 50 percent increase (SC50) in GABA or BZ binding. Each result is the average of one or more tests.

GABA receptor = assay: In vitro activation of GABA binding ([3H]GABA, Triton X-100 treated membrane protein); conditions: average of one or more tests, read-out: SC50 GABA (nanomolar concentration producing a 50% increase in binding)
Description: as §2

[4] = Appetite Suppression Assay; type: in vivo, Cox standard strain albino male mice; conditions: Mus musculus; oral gavage 30 min before feeding; active = weight gain of less than 10% of weight lost on fasting; read-out: Minimum active oral dose, Appetite Suppression
Description: In this test, groups of three Cox standard strain albino male mice were weighed (18-24 grams) and then fasted overnight (16-18 hours). The mice were reweighed and then given the test compound in a suspension of acacia (5%) by gavage. Thirty minutes after oral administration, the mice were allowed to eat freely for one hour. After the eating period, the mice were weighed once more. The percent of weight gained (from the time the mice were given the test compound to after the feeding period) compared to weight lost during the fast period was calculated. The non-drug treated control animals gained back 35-55% of the weight lost on fasting. Any compound at the dose level tested which produced a weight gain of less than 10% was considered to be active. The results in Table 2 report the lowest dose level in which there was activity for each compound tested. Dextroamphetamine sulfate is active in this system at about 2.5 mg./kg.

SMILES | EC50 (benzodiazepine receptor) | EC50 (GABA receptor) | minimal effective dose [1] | minimal effective dose [2] | minimal effective dose [3] | minimal effective dose [4]
Cc1ccc(-c2nnc(N3CCC(OS(=O)(=O)c4ccc(C)cc4)CC3)nc2-c2ccc(C)cc2)cc1 [Example 33, 1-[5,6-bis(4-methylphenyl)-1,2,4-triazin-3-yl]-4-piperidinol, 4-methylbenzene sulfonate (ester)] | 1200 nM | 8000 nM | > 200 mg/kg | > 200 mg/kg | > 200 mg/kg | > 200 mg/kg
Cc1ccc(-c2nnc(N3CCC4(CC3)OCCO4)nc2-c2ccc(C)cc2)cc1 [Example 38, 8-[5,6-bis(4-methylphenyl)-1,2,4-triazin-3-yl]-1,4-dioxa-8-azaspiro(4.5)decane] | 8000 nM | > 10000 nM | > 200 mg/kg | > 200 mg/kg | > 200 mg/kg | > 200 mg/kg
Cc1ccc(-c2nnc(N3CCC(=O)CC3)nc2-c2ccc(C)cc2)cc1 [Example 39, 1-[5,6-bis(4-methylphenyl)-1,2,4-triazin-3-yl]-4-piperidinone] | 430 nM | 200 nM | 50 mg/kg | 50 mg/kg | 50 mg/kg | 12.5 mg/kg

These reach a lower EC50 (benzodiazepine receptor). Values come first.

EC50 (benzodiazepine receptor) | EC50 (GABA receptor) | SMILES | minimal effective dose [1] | minimal effective dose [2] | minimal effective dose [3] | minimal effective dose [4]
18 nM | 12 nM | CCOC(=O)C1CCN(c2nnc(-c3ccc(C)cc3)c(-c3ccc(C)cc3)n2)CC1 [Example 35, 1-[5,6-bis(4-methylphenyl)-1,2,4-triazin-3-yl]-4-piperidinecarboxylic acid, ethyl ester] | > 200 mg/kg | > 200 mg/kg | > 200 mg/kg | > 200 mg/kg
400 nM | 1200 nM | Cc1ccc(-c2ncc(N3CCC(O)CC3)nc2-c2ccc(C)cc2)cc1 [Example 42, 1-[5,6-bis(4-methylphenyl)pyrazin-2-yl]-4-piperidinol] | 50 mg/kg | 12.5 mg/kg | 12.5 mg/kg | 12.5 mg/kg
10 nM | 7 nM | CC(=O)OC1CCN(c2cnc(-c3ccc(C)cc3)c(-c3ccc(C)cc3)n2)CC1 [Example 43, 1-[5,6-bis(4-methylphenyl)pyrazin-2-yl]-4-piperidinol, acetate (ester)] | 100 mg/kg | 100 mg/kg | 25 mg/kg | 25 mg/kg
